Experimental findings from patent US10112929B2, “Lactams as inhibitors of rock” (BRISTOL-MYERS SQUIBB COMPANY, priority 2015, dated 2018) are described below.

pIC50: −log10 of the molar value. Structures can show the parent of a compound that is named as a salt.
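Further: rho kinase enzyme reaction halted with EDTA, phospho- and non-phospho peptide separated for read-out, kinase activity inhibition derived across a dose-response series, DMSO under 2%.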

This test deals with ROCK2 (Homo sapiens (Human), UniProt O75116). The experiment in a line: biochemical.
ROCK2, sequence (O75116 whole entry, species assumed): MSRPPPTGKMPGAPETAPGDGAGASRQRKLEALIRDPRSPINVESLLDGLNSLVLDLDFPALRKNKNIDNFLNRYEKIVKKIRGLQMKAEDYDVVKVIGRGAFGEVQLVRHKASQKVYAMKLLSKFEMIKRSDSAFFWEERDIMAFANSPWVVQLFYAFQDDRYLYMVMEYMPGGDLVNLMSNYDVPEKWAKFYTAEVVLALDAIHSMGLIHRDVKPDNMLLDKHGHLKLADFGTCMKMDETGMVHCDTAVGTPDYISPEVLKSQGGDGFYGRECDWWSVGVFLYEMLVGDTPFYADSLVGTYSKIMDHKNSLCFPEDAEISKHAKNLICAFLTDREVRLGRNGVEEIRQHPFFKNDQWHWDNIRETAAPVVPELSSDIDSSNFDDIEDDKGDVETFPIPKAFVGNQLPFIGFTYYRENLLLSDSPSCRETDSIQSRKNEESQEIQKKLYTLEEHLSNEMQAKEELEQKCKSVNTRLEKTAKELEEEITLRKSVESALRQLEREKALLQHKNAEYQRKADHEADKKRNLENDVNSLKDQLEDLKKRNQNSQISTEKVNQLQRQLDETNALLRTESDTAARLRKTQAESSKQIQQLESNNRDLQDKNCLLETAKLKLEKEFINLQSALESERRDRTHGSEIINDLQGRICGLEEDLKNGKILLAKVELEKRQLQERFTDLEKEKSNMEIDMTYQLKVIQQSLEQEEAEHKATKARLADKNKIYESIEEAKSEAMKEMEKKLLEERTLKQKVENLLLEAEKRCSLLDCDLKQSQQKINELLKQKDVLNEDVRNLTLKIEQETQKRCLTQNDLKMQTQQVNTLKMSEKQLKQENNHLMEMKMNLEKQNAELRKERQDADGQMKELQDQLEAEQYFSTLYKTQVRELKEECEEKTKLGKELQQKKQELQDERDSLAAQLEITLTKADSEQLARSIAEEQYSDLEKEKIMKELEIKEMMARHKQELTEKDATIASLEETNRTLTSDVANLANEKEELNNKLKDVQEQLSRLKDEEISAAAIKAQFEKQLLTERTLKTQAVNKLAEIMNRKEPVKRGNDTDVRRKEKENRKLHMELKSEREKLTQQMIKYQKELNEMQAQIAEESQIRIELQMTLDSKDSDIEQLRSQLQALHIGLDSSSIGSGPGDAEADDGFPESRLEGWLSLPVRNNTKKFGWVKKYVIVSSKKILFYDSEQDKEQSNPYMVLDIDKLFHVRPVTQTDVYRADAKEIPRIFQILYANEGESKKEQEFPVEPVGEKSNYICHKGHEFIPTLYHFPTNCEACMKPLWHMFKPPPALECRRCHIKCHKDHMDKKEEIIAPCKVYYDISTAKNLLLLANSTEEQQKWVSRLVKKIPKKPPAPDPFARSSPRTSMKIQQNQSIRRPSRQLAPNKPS
On to `COc1nc(N2CCC(N3CCc4ccccc4C3)C2=O)ccc1-c1cn[nH]c1` (racemic) [Example 277, 3-(3,4-dihydroisoquinolin-2(1H)-yl)-1-(6-methoxy-5-(1H-pyrazol-4-yl)pyridin-2-yl)pyrrolidin-2-one], for which the pIC50 – broadly, the IC50 on a negative log10 scale, so that one unit is a factor of ten – is 5.66 to 7.00.
As to `COc1nc(N2CCC(N3CCCC(C)(C)C3)C2=O)ccc1-c1cn[nH]c1` (racemic) [Example 278, 3-(3,3-dimethylpiperidin-1-yl)-1-(6-methoxy-5-(1H-pyrazol-4-yl)pyridin-2-yl)pyrrolidin-2-one], the pIC50 was 5.66 to 7.00.
`COc1nc(N2CCC(N(C)C3CCN(C)CC3)C2=O)ccc1-c1cn[nH]c1` (racemic) [Example 279, 1-(6-methoxy-5-(1H-pyrazol-4-yl)pyridin-2-yl)-3-(methyl(1-methylpiperidin-4-yl)amino)pyrrolidin-2-one] showed a negative-log IC50 (pIC50) of 5.66 to 7.00.
On to `COc1nc(N2CCC(N3CCS(=O)(=O)CC3)C2=O)ccc1-c1cn[nH]c1` (racemic) [Example 280, 3-(1,1-dioxidothiomorpholino)-1-(6-methoxy-5-(1H-pyrazol-4-yl)pyridin-2-yl)pyrrolidin-2-one], for which the pIC50 is 7.00 to 8.00.
In turn, `COc1nc(N2CCC(N3CCc4cccnc43)C2=O)ccc1-c1cn[nH]c1` (racemic) [Example 281, 3-(2,3-dihydro-1H-pyrrolo[2,3-b]pyridin-1-yl)-1-(6-methoxy-5-(1H-pyrazol-4-yl)pyridin-2-yl)pyrrolidin-2-one] showed a pIC50 of 7.00 to 8.00.
As for `COc1nc(N2CCC(N3CCC(F)(F)CC3)C2=O)ccc1-c1cn[nH]c1` (racemic) [Example 282, 3-(4,4-difluoropiperidin-1-yl)-1-(6-methoxy-5-(1H-pyrazol-4-yl)pyridin-2-yl)pyrrolidin-2-one hydrochloride], the pIC50 was 7.00 to 8.00.
The value for `COc1nc(N2CCC(N3CCCC(F)C3)C2=O)ccc1-c1cn[nH]c1` (racemic) [Example 283, 3-(3-fluoropiperidin-1-yl)-1-(6-methoxy-5-(1H-pyrazol-4-yl)pyridin-2-yl)pyrrolidin-2-one hydrochloride] was 7.00 to 8.00.
In turn, `COc1nc(N2CCC(N3CCC(F)(F)C3)C2=O)ccc1-c1cn[nH]c1` (racemic) [Example 284, 3,3-difluoro-1′-(6-methoxy-5-(1H-pyrazol-4-yl)pyridin-2-yl)-[1,3′-bipyrrolidin]-2′-one hydrochloride] had a negative logarithm of the IC50 (pIC50) of 5.66 to 7.00.
`COc1nc(N2CCC(N3CCC(C(F)(F)F)CC3)C2=O)ccc1-c1cn[nH]c1` (racemic) [Example 285, 1-(6-methoxy-5-(1H-pyrazol-4-yl)pyridin-2-yl)-3-(4-(trifluoromethyl)piperidin-1-yl)pyrrolidin-2-one hydrochloride] showed a negative-log IC50 (pIC50) of 5.66 to 7.00.
Compound `COc1nc(N2CCC(N3CCN(S(C)(=O)=O)CC3)C2=O)ccc1-c1cn[nH]c1` (racemic) [Example 286, 1-(6-methoxy-5-(1H-pyrazol-4-yl)pyridin-2-yl)-3-(4-(methylsulfonyl)piperazin-1-yl)pyrrolidin-2-one] gave a pIC50 of 5.66 to 7.00.
The compound `COc1ccc(N2CCN(C3CCN(c4ccc(-c5cn[nH]c5)c(OC)n4)C3=O)CC2)cc1` (racemic) [Example 287, 1-(6-methoxy-5-(1H-pyrazol-4-yl)pyridin-2-yl)-3-(4-(4-methoxyphenyl)piperazin-1-yl)pyrrolidin-2-one dihydrochloride] showed a negative-log IC50 (pIC50) of 5.66 to 7.00.
The figure for `COc1nc(N2CCC(N3CCN(c4ccc(O)cc4)CC3)C2=O)ccc1-c1cn[nH]c1` (racemic) [Example 288, 3-(4-(44iydroxyphenyl)piperazin-1-yl)-1-(6-methoxy-5-(1H-pyrazol-4-yl)pyridin-2-yl)pyrrolidin-2-one] is 5.66 to 7.00.
Compound `COc1nc(N2CCC(N3CCC(CO)CC3)C2=O)ccc1-c1cn[nH]c1` (racemic) [Example 289, 3-(4-(hydroxymethyl)piperidin-1-yl)-1-(6-methoxy-5-(1H-pyrazol-4-yl)pyridin-2-yl)pyrrolidin-2-one] gave a negative-log IC50 (pIC50) of 7.00 to 8.00.
